Results published in patent publication US11634404B2 (priority 2016, dated 2023).

Tests used:
D3 DAR = D3 DAR (Homo sapiens (Human), UniProt P35462); format: cell-based; conditions: β-arrestin recruitment, agonist
D2 DAR [1] = biological target: T1, D2 DAR (Homo sapiens (Human), UniProt P14416); format: cell-based; conditions: β-arrestin recruitment, agonist; 'curve' = wrapped cell 'curve interrupted'
D3R [2] = biological target: T2, D3R (Homo sapiens (Human), UniProt P35462); experiment: Go BRET activation assay; format: cell-based; conditions: orthogonal assay
T2 sequence (P35462 whole entry): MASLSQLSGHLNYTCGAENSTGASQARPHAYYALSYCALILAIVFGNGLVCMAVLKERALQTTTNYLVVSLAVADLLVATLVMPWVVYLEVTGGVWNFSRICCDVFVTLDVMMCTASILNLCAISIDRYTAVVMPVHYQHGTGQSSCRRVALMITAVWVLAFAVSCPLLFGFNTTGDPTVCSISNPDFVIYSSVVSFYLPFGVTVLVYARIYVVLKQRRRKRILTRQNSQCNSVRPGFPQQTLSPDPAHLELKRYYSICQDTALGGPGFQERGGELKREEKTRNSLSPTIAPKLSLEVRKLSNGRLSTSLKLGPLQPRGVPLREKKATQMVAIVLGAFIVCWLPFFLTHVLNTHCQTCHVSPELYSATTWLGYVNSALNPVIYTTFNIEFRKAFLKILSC

D3R [3] = biological target: T2, D3R; experiment: ERK1/2 Phosphorylation assay; format: cell-based; conditions: orthogonal assay
D2 DAR [4] = biological target: T1, D2 DAR; experiment: [35S]GTPγS binding assay; format: biochemical; conditions: % maximum dopamine response
Source text: A [^35S]GTPγS (Perkin Elmer NEG030H) binding assay was utilized as described in the protocol below (Table 7).

panel of 168 GPCRs [5] = biological target: panel of 168 GPCRs (Homo sapiens, UniProt P20309); format: cell-based; conditions: GPCR CHRM3; agonist, 10 μM
panel of 168 GPCRs [6] = biological target: panel of 168 GPCRs (Homo sapiens, UniProt P23945); format: cell-based; conditions: GPCR FSHR; agonist, 10 μM
panel of 168 GPCRs (Homo sapiens, UniProt P23945), sequence (P23945 18-695 limits assumed): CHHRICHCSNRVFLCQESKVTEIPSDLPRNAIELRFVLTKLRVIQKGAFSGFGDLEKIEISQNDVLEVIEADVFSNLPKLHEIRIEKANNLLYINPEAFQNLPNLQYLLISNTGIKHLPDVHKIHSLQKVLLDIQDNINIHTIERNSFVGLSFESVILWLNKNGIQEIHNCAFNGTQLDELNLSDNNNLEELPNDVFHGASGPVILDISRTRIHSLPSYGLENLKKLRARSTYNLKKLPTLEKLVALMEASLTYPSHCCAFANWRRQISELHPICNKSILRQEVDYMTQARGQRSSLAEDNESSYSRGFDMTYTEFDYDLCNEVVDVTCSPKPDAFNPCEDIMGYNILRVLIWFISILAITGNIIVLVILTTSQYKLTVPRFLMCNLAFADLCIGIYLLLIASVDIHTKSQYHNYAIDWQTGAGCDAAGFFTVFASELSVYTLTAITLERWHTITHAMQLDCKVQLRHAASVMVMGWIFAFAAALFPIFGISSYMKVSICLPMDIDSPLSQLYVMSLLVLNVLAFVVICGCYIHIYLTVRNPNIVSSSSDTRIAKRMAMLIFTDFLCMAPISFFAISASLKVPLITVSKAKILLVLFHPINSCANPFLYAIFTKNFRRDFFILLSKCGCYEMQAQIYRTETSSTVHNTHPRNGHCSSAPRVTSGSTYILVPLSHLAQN

panel of 168 GPCRs [7] = biological target: panel of 168 GPCRs (Homo sapiens, UniProt P32249); format: cell-based; conditions: GPCR EBI2; agonist, 10 μM
panel of 168 GPCRs [8] = biological target: panel of 168 GPCRs (Homo sapiens, UniProt P35414); format: cell-based; conditions: GPCR AGTRL1; agonist, 10 μM
panel of 168 GPCRs [9] = biological target: panel of 168 GPCRs (Homo sapiens, UniProt P41586); format: cell-based; conditions: GPCR ADCYAP1R1; agonist, 10 μM
panel of 168 GPCRs (Homo sapiens, UniProt P41586), sequence (P41586 21-468 limits assumed): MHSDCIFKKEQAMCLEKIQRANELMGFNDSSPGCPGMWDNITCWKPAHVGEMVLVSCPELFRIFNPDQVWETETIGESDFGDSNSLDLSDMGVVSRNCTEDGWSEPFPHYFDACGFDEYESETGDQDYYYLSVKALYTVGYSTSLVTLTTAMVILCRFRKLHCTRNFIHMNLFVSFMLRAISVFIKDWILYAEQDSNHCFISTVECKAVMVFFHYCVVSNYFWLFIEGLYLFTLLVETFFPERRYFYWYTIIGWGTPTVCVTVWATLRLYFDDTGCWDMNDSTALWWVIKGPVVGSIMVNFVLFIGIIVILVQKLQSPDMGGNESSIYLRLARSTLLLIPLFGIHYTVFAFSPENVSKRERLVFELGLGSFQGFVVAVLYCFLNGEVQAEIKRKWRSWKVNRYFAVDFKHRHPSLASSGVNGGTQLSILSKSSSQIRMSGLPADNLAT

panel of 168 GPCRs [10] = biological target: panel of 168 GPCRs (Homo sapiens, UniProt Q92847); format: cell-based; conditions: GPCR GHSR; agonist, 10 μM
panel of 168 GPCRs [11] = biological target: panel of 168 GPCRs (Homo sapiens, UniProt Q99788); format: cell-based; conditions: GPCR CMKLR1; agonist, 10 μM
panel of 168 GPCRs [12] = biological target: panel of 168 GPCRs (Homo sapiens, UniProt Q9P296); format: cell-based; conditions: GPCR C5L2; agonist, 10 μM
[13] = test system: receptors, transporters and some ion channels; experiment: PDSP primary radioligand binding panel; conditions: 10 μM, >50% inhibition considered significant
Source text: […]. […] […]. […] […].

5HT2B receptor = 5HT2B receptor (Homo sapiens (Human), UniProt P41595); experiment: HTRF IP1 accumulation assay (Eurofins Cerep); format: cell-based
5HT2B receptor, sequence (P41595 whole entry): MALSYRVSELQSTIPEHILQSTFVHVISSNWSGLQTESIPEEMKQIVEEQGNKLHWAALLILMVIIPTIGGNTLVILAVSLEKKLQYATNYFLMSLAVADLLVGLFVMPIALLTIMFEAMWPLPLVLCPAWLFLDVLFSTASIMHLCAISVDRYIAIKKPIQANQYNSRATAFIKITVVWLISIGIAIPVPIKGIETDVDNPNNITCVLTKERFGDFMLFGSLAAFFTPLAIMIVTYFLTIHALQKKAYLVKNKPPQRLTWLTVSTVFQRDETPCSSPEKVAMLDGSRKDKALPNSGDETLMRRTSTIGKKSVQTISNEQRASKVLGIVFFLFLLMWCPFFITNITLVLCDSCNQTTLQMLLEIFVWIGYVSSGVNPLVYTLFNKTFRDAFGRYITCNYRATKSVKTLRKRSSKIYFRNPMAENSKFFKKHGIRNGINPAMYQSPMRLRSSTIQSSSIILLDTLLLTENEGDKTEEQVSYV

D3R Y198A [14] = biological target: T3, D3R Y198A (Homo sapiens (Human), UniProt P35462, Y198A); experiment: arrestin BRET assay, mutagenesis; format: cell-based
T3 sequence (P35462 whole entry Y198A): as the sequence (P35462 whole entry) above, with Y198A counted along it
Description: (§1) BRET arrestin recruitment assay. As an orthogonal test using an unrelated assay of D3R-mediated β-arrestin recruitment, an arrestin BRET assay was conducted.
(§2) […]. […] […]. The Y365A mutation had more dramatic effects. […].

D3R Y365A [15] = biological target: T4, D3R Y365A (Homo sapiens (Human), UniProt P35462, Y365A); experiment: arrestin BRET assay, mutagenesis; format: cell-based; conditions: Y365A mutation
T4 sequence (P35462 whole entry Y365A): as the sequence (P35462 whole entry) above, with Y365A counted along it
Description: as §1, §2

D3R Y198A [16] = biological target: T3, D3R Y198A; experiment: Go BRET assay, mutagenesis; format: cell-based
Source text: (§3) Go BRET activation assay. […].
as §2

D3R Y365A [17] = biological target: T4, D3R Y365A; experiment: Go BRET assay, mutagenesis; format: cell-based
Source text: as §3, §2

[18] = test system: terminally differentiated SHSY5Y cells; experiment: Neuroprotection assay against 6-hydroxydopamine; format: cell-based; conditions: 24 h pretreatment, 10 μM 6-hydroxydopamine
Description: […]. Protection against total neurite length decrease was measured 24 h later. […].

TA100 = experiment: Ames reverse mutation assay; format: cell-based; conditions: highest conc. tested 2,000 μg/ml
Description: (§4) […]. The cultures were then diluted into an indicator medium lacking histidine, dispensed into a 384-well plate, and incubated for 48 h at 37° C. Cells that have undergone a reversion will grow, resulting in a color change. The number of wells showing growth were counted and compared to the vehicle control. […]. Data were analyzed using an unpaired, one-sided Student's T-test. Where indicated, S9 fraction from the livers of Aroclor 1254-treated rats were included in the incubation at a 4.5% final concentration. An NADPH-regenerating system was also included to ensure a steady supply of reducing equivalents.

TA98 = experiment: Ames reverse mutation assay; format: cell-based; conditions: highest conc. tested 2,000 μg/ml
Description: as §4
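Wherever β-Arrestin Recruitment activity is given: recruitment activity reported in % for each GPCR in the panel.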

T1 sequence (P14416 whole entry): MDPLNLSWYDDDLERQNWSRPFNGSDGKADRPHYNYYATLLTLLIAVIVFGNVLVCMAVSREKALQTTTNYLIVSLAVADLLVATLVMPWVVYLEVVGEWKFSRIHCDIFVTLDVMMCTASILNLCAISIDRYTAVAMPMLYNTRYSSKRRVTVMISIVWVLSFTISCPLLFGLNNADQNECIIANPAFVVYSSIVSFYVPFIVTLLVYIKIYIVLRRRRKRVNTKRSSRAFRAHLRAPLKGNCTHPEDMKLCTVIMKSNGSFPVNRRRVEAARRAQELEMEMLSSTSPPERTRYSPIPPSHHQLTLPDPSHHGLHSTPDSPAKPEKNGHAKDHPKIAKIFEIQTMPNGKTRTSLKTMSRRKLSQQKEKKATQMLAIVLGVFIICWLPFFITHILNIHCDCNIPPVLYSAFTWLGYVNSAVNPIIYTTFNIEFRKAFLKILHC
D3 DAR, sequence (P35462 whole entry): as the sequence (P35462 whole entry) above

COc1ccc(OCCN2CCN(C(=O)c3cc4ccccc4[nH]3)CC2)cc1 [Compound 1, (1H-indol-2-yl)(4-(2-(4-methoxyphenoxy)ethyl)piperazin-1-yl)methanone]
EC50 (D3 DAR): 0.036 µM
D2 Emax (D2 DAR [1]): Curve
agonist activity, G-protein mediated signaling (Go BRET) (D3R [2]): potent and fully efficacious D3R-selective agonist
agonist activity, ERK phosphorylation (D3R [3]): potent and fully efficacious D3R-selective agonist
activation of the D2 DAR, [35S]GTPγS binding (D2 DAR [4]): not to activate the D2 DAR
β-Arrestin Recruitment activity (panel of 168 GPCRs [5]): 0%
β-Arrestin Recruitment activity (panel of 168 GPCRs [6]): 5%
β-Arrestin Recruitment activity (panel of 168 GPCRs [7]): 0%
β-Arrestin Recruitment activity (panel of 168 GPCRs [8]): 4%
β-Arrestin Recruitment activity (panel of 168 GPCRs [9]): 6%
β-Arrestin Recruitment activity (panel of 168 GPCRs [10]): −3%
β-Arrestin Recruitment activity (panel of 168 GPCRs [11]): 0%
β-Arrestin Recruitment activity (panel of 168 GPCRs [12]): 6%
affinity in primary binding panel [13]: displays affinity for only the D3R, 5-HT1A, 5-HT2B, and Sigmal receptor
inhibition at 10 µM (5HT2B receptor; read-out: inhibition of response elicited by serotonin): 80%
agonist activity, IP1 accumulation (5HT2B receptor; single high concentration of 10 μM): No agonist activity was found
effect of mutation on potency (D3R Y198A [14]): minimal effects on the potency
signaling efficacy, % that of dopamine (D3R Y198A [14]; Y198A mutation): 36%
efficacy, % that of dopamine (D3R Y365A [15]): 210%
potency reduction (D3R Y365A [15]): 440 fold
effect of mutation on potency (D3R Y198A [16]): minimal effects on the potency
signaling efficacy, % that of dopamine (D3R Y198A [16]; Y198A mutation): 64%
effect of mutation on efficacy (D3R Y365A [17]): appeared to be unaffected
potency reduction (D3R Y365A [17]; Y365A mutation): 25,000 fold
neuroprotection, dose-response [18]: clear concentration dependent effect
neuroprotection, protection against total neurite length decrease ([18]; compared with pramipexole): neuroprotection superior to pramipexole
AMES Result (TA100; TA100, S9 No): Negative
AMES Result (TA100; TA100, S9 Yes): Negative
AMES Result (TA98; TA98, S9 No): Negative
AMES Result (TA98; TA98, S9 Yes): Negative
